From a melting point compilation (Tetko et al.) come the findings set out here.

The structures appear in SMILES notation.

By melting point is commonly meant the temperature, or range, at which the solid turns liquid. In turn, `Nc1ncc(-c2ccc(F)cc2)s1` displayed a melting point of 209 to 211 °C.
To `CCCOc1cc2c(cc1OCCC)CCNCC2` belongs 61 to 63 °C.
To `Nc1cc(C2CCNCC2)n[nH]1` belongs 151 to 153 °C.
Take `N#Cc1ccc(OCc2ccc(C(=O)O)o2)cc1`: the melting point was in the range of 203 to 205 °C.
As for `Cc1nn(-c2ccccn2)c2nc(C3CC3)cc(C(=O)O)c12`, the figure is 237 to 239 °C; as for `CC(C)(C)OC(=O)N1CCN(CCN)CC1`, 34 to 36 °C.
To `OCc1nnc(Cc2ccccc2Br)[nH]1` belongs 99 to 101 °C.
As for `Cc1sc(C(=O)O)cc1S(=O)(=O)Cl`, the figure is 148 to 150 °C; as for `CS(=O)(=O)c1ccsc1N`, 90 to 92 °C.
In the case of `O=C(O)c1cc(F)c(O)c(F)c1`, the melting point is 160 to 162 °C.
As for `COC(=O)Nc1ccc(Br)cc1`, the figure is 122 to 124 °C; as for `Cc1ccc(C(=O)NN)o1`, 59 to 61 °C.
As for `COCCNC(N)=O`, the melting point lay within 72 to 74 °C.
As for `CC(=O)c1ccc2cc(O)ccc2c1`, the figure is 170 to 172 °C; as for `Cc1ccc(S(=O)(=O)N(C)Cc2ccc(C(=O)NN)cc2)cc1`, 66 to 68 °C; as for `Cn1cc(CC(=O)O)cn1`, 121 to 123 °C.
To `CC(Cl)C(=O)c1ccc(Cl)cc1` (configuration not stated) belongs 58 to 60 °C; to `O=C(c1cccc([N+](=O)[O-])c1)N1CCNCC1`, 145 to 147 °C.
As for `CS(=O)(=O)c1ccc(N)cc1F`, the figure is 116 to 118 °C; as for `CCS(=O)(=O)c1nc2ccc(N)cc2s1`, 90 to 92 °C.
Regarding `Cc1cc(NS(C)(=O)=O)ccc1Br`, the melting point lay within 102 to 104 °C.
As for `N#Cc1ccc(Oc2cccc(N)c2)nc1`, the melting point fell in the range of 112 to 114 °C.
As for `COc1ccc(C=O)cc1OC(F)F`, the figure is 34 to 38 °C.
To `Cc1c(N)cccc1N1CCOC1=O` belongs 140 to 142 °C.
`Clc1ncc(Br)c2ccccc12` came in with a melting point of 98 to 100 °C.
As for `CCC(C)(C#N)NC(=O)c1ccccc1` (configuration not stated), the figure is 138 to 140 °C.
To `Cc1ccc(C#N)c(Sc2ccccc2)c1` belongs 59 to 61 °C; to `COCCNS(=O)(=O)c1ccc(C(=O)O)cc1`, 254 to 256 °C.
As for `CC(=O)Nc1ccc(C2NC(=O)NC2=O)cc1` (configuration not stated), the figure is 314 to 316 °C; as for `O=C1CC2(CCCCC2)CC(=O)N1`, 169 to 171 °C; as for `COc1ccc(-c2cnnc(N)n2)cc1`, 246 to 248 °C.
With `Cc1[nH][nH]c(=O)c1CCO`, the melting point lay in the range of 183 to 185 °C.
As for `CN(CCO)c1ccc([N+](=O)[O-])cc1`, the figure is 97 to 99 °C.
To `Cc1cc(N)ccc1NC(=O)CN1CCCC1=O` belongs 209 to 211 °C.
As for `CC(Cl)C(=O)Nc1c(Cl)cccc1Cl` (configuration not stated), the melting point lay in the range of 144 to 146 °C.
As for `COc1ccc(Br)c(-c2nnc(N)o2)c1`, the figure is 189 to 191 °C.
As for `COCCOC(=O)c1c(C)[nH]c(C(=O)O)c1C`, the figure is 177 to 179 °C; as for `O=[N+]([O-])c1cccc2c1CCCN2`, 79 to 81 °C.
To `Nc1cccc(-n2ccc(C(=O)O)n2)c1` belongs 249 to 251 °C; to `O=C(O)C=Cc1cc(Cl)ccc1OCc1ccc(Cl)cc1`, 162 to 164 °C; to `O=C1NC(=O)C2(CCCC2)N1`, 140 to 142 °C.
In turn, `Cc1nc(NCCc2ccccc2)sc1C(=O)O` came in with a melting point of 170 to 172 °C.
Turning to `Nc1nc(N2CCOCC2)ns1`, the melting point is 187 to 189 °C.
To `CC(Cl)C(=O)NC(C)c1ccc(Cl)cc1` (configuration not stated) belongs 127 to 129 °C.
As for `O=S(=O)(c1ccccc1)N1C2Cc3ccccc3C21` (configuration not stated), the figure is 120 to 122 °C; as for `CCCS(=O)(=O)NC(C)C(=O)O` (configuration not stated), 64 to 66 °C; as for `O=S(=O)(Cl)c1ccc(C2CCCCC2)cc1`, 49 to 51 °C.
As for `CCc1cccc2c(CCN)c[nH]c12`, the figure is 91 to 93 °C; as for `C=C(C#N)C(O)c1ccc([N+](=O)[O-])cc1` (configuration not stated), 64 to 66 °C.
As to `Cc1cc(OCCO)ccc1N`, the melting point fell in the range of 62 to 64 °C.
To `O=C(NCc1ccccc1)c1cc(Cl)ccn1` belongs 66 to 68 °C.
To `O=C(O)CCOc1cccnc1` belongs 174 to 176 °C; to `C#CCNC(=O)Nc1ccc(C)cc1`, 174 to 176 °C.
On to `O=C(CC(F)(F)F)c1ccc(F)cc1F`, for which the melting point was 46 to 48 °C.
To `O=C(O)c1ccccc1CO` belongs 119 to 121 °C.
In the case of `O=C(O)Cc1cc(=O)n(-c2ccccn2)[nH]1`, the melting point lay in the range of 98 to 100 °C.
Take `NS(=O)(=O)c1ccc(OCCBr)cc1`: the melting point lay in the range of 111 to 113 °C.
`Cc1nn(Cc2ccc(Cl)cc2)c(C)c1C(=O)O` gave a melting point of 188 to 190 °C.
To `COC(=O)c1cc(F)cc(S(=O)(=O)Cl)c1Br` belongs 73 to 75 °C; to `O=C(O)c1ccc(Oc2ccc(F)cc2F)cc1`, 172 to 174 °C; to `NC(=O)c1ccc(N)cn1`, 169 to 171 °C.
To `Cn1ccc(C(=O)O)cc1=O` belongs 219 to 221 °C.
To `N#Cc1ccc(S(=O)(=O)Cl)cc1Cl` belongs 51 to 53 °C; to `O=Cc1c(N2CCOCC2)nc2ccccn12`, 164 to 166 °C; to `COc1cc(OC)cc(C(=O)Nc2ccc(O)c(C(=O)O)c2)c1`, 241 to 243 °C.
`COC(=O)c1c(-c2cnn(C)c2)csc1N` had a melting point of 128 to 130 °C.
As for `N#Cc1ccsc1NC(=O)CCl`, the melting point was 160 to 170 °C.
For the compound `CC(c1ccccc1)n1c(N)nc2ccccc21` (configuration not stated), the melting point was 124 to 126 °C.
As for `COc1ccc(CC2CC(=O)N2)cc1` (configuration not stated), the melting point lay in the range of 97 to 99 °C.
To `COc1ccc(N2CC(C(=O)O)CC2=O)cc1` (configuration not stated) belongs 171 to 173 °C; to `NCc1cccc(NC(=O)N2CCCC2)c1`, 128 to 130 °C.
Compound `COC(=O)C(=O)CC(=O)c1cc(F)ccc1F` came in with a melting point of 145 to 147 °C.
To `C=CCn1nnnc1S` belongs 66 to 68 °C; to `O=C(O)C1(Cc2nc3ccccc3[nH]2)CCCC1`, 255 to 257 °C; to `CC(C)CC(N)C(O)c1cccs1` (configuration not stated), 63 to 65 °C.
As for `CCOC(=O)c1[nH]nc2ccc(Br)cc12`, the figure is 231 to 233 °C.
As for `CC(C)CN1C(=O)NC(=O)C1=O`, the figure is 145 to 148 °C.
Compound `O=Cc1c[nH]c2cc(F)ccc12` gave a melting point of 176 to 178 °C.
To `O=C(O)c1ccc(CS)cc1` belongs 179 to 181 °C; to `CN(C)C(=O)c1ccc(Cl)c(S(N)(=O)=O)c1`, 130 to 132 °C; to `O=C(O)c1ccc2c(c1Cl)C(=O)c1ccccc1C2=O`, 199 to 201 °C.
Take `NCC(O)COCc1ccccc1` (configuration not stated): the melting point was 74 to 76 °C.
As for `CC(C)CN1CCCCC1C(=O)O` (configuration not stated), the figure is 198 to 200 °C; as for `CCOC(=O)/C(=C(\O)CCl)c1nc(C)cs1`, 76 to 78 °C; as for `CC(=O)Nc1cccc(C(C)N)c1` (configuration not stated), 59 to 61 °C.
To `Cc1ccc(-c2nc(C(=O)O)cs2)c(C)c1` belongs 129 to 131 °C.
To `COCCOCC(=O)Nc1cccc(N)c1C` belongs 82 to 84 °C.
Consider `O=Cc1cc(Cl)c2c(c1)OCCO2`, for which the melting point was in the range of 79 to 83 °C.
Compound `N#Cc1cc(Cl)ccc1N=C=O` registered a melting point of 71 to 75 °C.
As for `O=S(=O)(Cl)C12CC3CC(CC(C3)C1)C2`, the figure is 121 to 123 °C; as for `Cc1ccc2c(C)cc(NN)nc2c1C`, 191 to 193 °C; as for `O=C(CCl)c1cc(Cl)sc1Cl`, 43 to 45 °C.
To `CC(C)(C)C(O)CN` (configuration not stated) belongs 64 to 66 °C; to `CC1(c2cccc(N)c2)NC(=O)NC1=O` (configuration not stated), 78 to 80 °C.
To `Cc1cccc(-c2nc3cc(Cl)ccc3[nH]2)c1O` belongs 249 to 251 °C; to `CC(C)(C)OC(=O)N1CCC(CCC(=O)O)CC1`, 99 to 101 °C.
`COc1ccccc1-c1nn(-c2ccccc2)cc1C(=O)O` registered a melting point of 195 to 197 °C.
Turning to `CCNc1ccc(S(=O)(=O)C(F)(F)F)cc1N`, the melting point was 149 to 151 °C.
Compound `CCCn1c(S)nnc1-c1ccncc1` came in with a melting point of 258 to 260 °C.
As for `CCCN(C(=O)c1ccccc1N)C(C)C`, the figure is 64 to 66 °C; as for `O=C(O)C1CCCCN1C(=O)OCc1ccccc1` (configuration not stated), 86 to 88 °C.
For the compound `OC1(Cc2ccc(F)cc2)CCNC1` (configuration not stated), the melting point was 73 to 75 °C.
As for `CCN(CC)S(=O)(=O)c1ccc2c(c1)CCN2`, the figure is 80 to 82 °C.
To `CCOC(=O)/C(C#N)=C\Nc1ccccc1F` belongs 142 to 144 °C; to `O=C(O)C1CC(=O)N(c2ccc3c(c2)OCCO3)C1` (configuration not stated), 221 to 223 °C.
As for `Clc1nccc(-n2cccn2)n1`, the figure is 118 to 120 °C; as for `CC(C)(C)c1noc(-c2ccccc2C(=O)O)n1`, 100 to 102 °C; as for `Cc1ccc(-n2ncc(Cl)c(Cl)c2=O)cc1Cl`, 206 to 208 °C.
Compound `CN(C)S(=O)(=O)c1ccnc(N)c1` showed a melting point of 148 to 150 °C.
In turn, `O=C(c1ccccc1)c1ccc(Cl)cc1O` showed a melting point of 75 to 77 °C.
With `O=C(O)CCCCCCNC(=O)OCc1ccccc1`, the melting point lay in the range of 89 to 91 °C.
To `O=C(CSc1cccs1)Nc1ccc(C(=O)O)cc1` belongs 233 to 235 °C.
To `O=C(O)Cn1cc2ccccc2n1` belongs 248 to 250 °C; to `CC(C)(C)n1cc(C(=O)O)c(-c2ccccc2Cl)n1`, 164 to 166 °C; to `O=C(O)c1ccc(Cl)c(S(=O)(=O)N2CCCC2)c1`, 239 to 241 °C.
Consider `Brc1ccc(NCc2cccs2)cc1`, for which the melting point is 49 to 51 °C.
As for `CN1CCc2ccc(C(=O)O)cc21`, the figure is 165 to 167 °C; as for `CC(C)Oc1ccc(C(=O)NN)cc1`, 117 to 119 °C; as for `O=C(O)/C=C/c1ccc(Br)c(Cl)c1`, 175 to 186 °C.
As for `CC(C)(N)CNC(=O)OC(C)(C)C`, the figure is 68 to 70 °C; as for `O=C(O)c1ccnc2ncnn12`, 259 to 261 °C; as for `O=C(O)CCS(=O)(=O)N1CCOCC1`, 163 to 165 °C.
